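Where inhibition never reached the appropriate level, the endpoint shown equals the highest concentration tested. Otherwise, values were interpolated linearly from a five-concentration, 48-hour dose response in 96-well plates. GI50: concentration for 50% inhibition of growth.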 The source made the active and inactive calls. Cut-off read from the data, not from the text of the source: active = GI50 up to about 1.1 µM and inactive = higher.
Experiments:
Test in all cases: NCI-60 cell line screen, 48 h
K562 = system: K562
NCI-H522 = system: NCI-H522
NCI-H23 = system: NCI-H23
HOP-62 = system: HOP-62
SF-539 = system: SF-539
TK-10 = system: TK-10
RXF 393 = system: RXF 393
SK-MEL-2 = system: SK-MEL-2
SF-295 = system: SF-295
COLO 205 = system: COLO 205
EKVX = system: EKVX
A549 = system: A549
UACC-257 = system: UACC-257
HOP-18 = system: HOP-18
KM12 = system: KM12
SK-MEL-28 = system: SK-MEL-28
DLD-1 = system: DLD-1
786-0 = system: 786-0
MOLT-4 = system: MOLT-4
RPMI-8226 = system: RPMI-8226
M14 = system: M14
CCRF-CEM = system: CCRF-CEM
HCT-15 = system: HCT-15
SW-620 = system: SW-620
UACC-62 = system: UACC-62
DMS-273 = system: DMS-273
Malme-3M = system: Malme-3M
SNB-19 = system: SNB-19
HT-29 = system: HT-29
ACHN = system: ACHN
M19-MEL = system: M19-MEL
OVCAR-8 = system: OVCAR-8
OVCAR-3 = system: OVCAR-3
XF498 = system: XF498
UO-31 = system: UO-31
NCI-H460 = system: NCI-H460
IGROV-1 = system: IGROV-1
SK-OV-3 = system: SK-OV-3
DMS-114 = system: DMS-114
NCI-H226 = system: NCI-H226
HCT-116 = system: HCT-116
SN12C = system: SN12C
SK-MEL-5 = system: SK-MEL-5
HL-60 = system: HL-60
LOX IMVI = system: LOX IMVI
U-251 = system: U-251

O=c1ccc2ccc(O)c3c4c(O)ccc5ccc(=O)c(c1c23)c54
GI50 (K562): 2070 nM (inactive)
GI50 (NCI-H522): 1450 nM (inactive)
GI50 (NCI-H23): 1660 nM (inactive)
GI50 (HOP-62): 2720 nM (inactive)
GI50 (SF-539): 1690 nM (inactive)
GI50 (TK-10): 2670 nM (inactive)
GI50 (RXF 393): 1170 nM (inactive)
GI50 (SK-MEL-2): 1450 nM (inactive)
GI50 (SF-295): 2690 nM (inactive)
GI50 (COLO 205): 1910 nM (inactive)
GI50 (EKVX): 3380 nM (inactive)
GI50 (A549): 2950 nM (inactive)
GI50 (UACC-257): 1490 nM (inactive)
GI50 (HOP-18): 2260 nM (inactive)
GI50 (KM12): 1240 nM (inactive)
GI50 (SK-MEL-28): 1140 nM (inactive)
GI50 (DLD-1): 1640 nM (inactive)
GI50 (786-0): 2310 nM (inactive)
GI50 (MOLT-4): 2110 nM (inactive)
GI50 (RPMI-8226): 2900 nM (inactive)
GI50 (M14): 1600 nM (inactive)
GI50 (CCRF-CEM): 710 nM (active)
GI50 (HCT-15): 1260 nM
GI50 (SW-620): 2070 nM (inactive)
GI50 (UACC-62): 382 nM (active)
GI50 (DMS-273): 1950 nM (inactive)
GI50 (Malme-3M): 371 nM (active)
GI50 (SNB-19): 2180 nM (inactive)
GI50 (HT-29): 4270 nM (inactive)
GI50 (ACHN): 2690 nM (inactive)
GI50 (M19-MEL): 690 nM (active)
GI50 (OVCAR-8): 1460 nM (inactive)
GI50 (OVCAR-3): 964 nM (active)
GI50 (XF498): 1790 nM (inactive)
GI50 (UO-31): 1650 nM (inactive)
GI50 (NCI-H460): 3560 nM (inactive)
GI50 (IGROV-1): 1820 nM (inactive)
GI50 (SK-OV-3): 4020 nM (inactive)
GI50 (DMS-114): 1510 nM (inactive)
GI50 (NCI-H226): 2040 nM (inactive)
GI50 (HCT-116): 1430 nM (inactive)
GI50 (SN12C): 2080 nM (inactive)
GI50 (SK-MEL-5): 1140 nM (inactive)
GI50 (HL-60): 1090 nM (active)
GI50 (LOX IMVI): 1180 nM (inactive)
GI50 (U-251): 1290 nM (inactive)

Source: ChEMBL document CHEMBL1201862, “PubChem BioAssay data set” (2004)
